In brackets after ≈: the same amount, converted by molar mass. Like-named read-outs stand apart in the source and are kept apart here.

Common to all, as to assay type: cell-based
Series [1] has as its system HT-29 human colorectal carcinoma cells. Nature of the series: Cytotoxic effect against HT-29 cells (Table 30). Here is the method: The following additional dehydrophenylahistin derivatives were synthesized according to the methods described herein and their cytotoxic effect against HT-29 human colorectal carcinoma cells were determined.
Series [2] relates to HT-29 human colon cells. Nature of the series: Tumor cytotoxicity assay, resazurin fluorescence, 48 h (Example 6). The note with it: for EC50: Homo sapiens; for cytotoxic activity against HT-29 cells: in words. For orientation: The colour change of resazurin is a common sign of viable cells or microbes.
Series [3] concerns Trichophyton rubrum. Nature of the series: Antifungal susceptibility testing, broth dilution (MIC/MFC). The note with it: Trichophyton species. Here is the method: (§1) Specifically, disclosed compounds were evaluated alongside commercially available microtubulin inhibitors as well as recognized antifungal agents.
(§2) Microorganisms against which these compounds were tested included: Candida albicans, Candida glabrata, Aspergillus fumigatus, Trichophyton rubrum, Trichophyton mentagrophytes, Epidermophyton floccosum. With the exception of Candida glabrata (one isolate), two isolates of each species were tested.
(§3) The minimum lethal concentration (MLC) was determined by plating […] from the MIC concentration and each concentration above the MIC. […] When a MIC was obtained, a minimum fungicidal concentration (MFC) was determined to assess the fungistatic/fungicidal nature of the compound.
(In general: Broth dilution looks for growth in wells or tubes with falling amounts of substance.)

In series [4] the test system is Candida albicans. The description is as above. Here is the method:
as §1, §2, §3

For series [5], the system named is Candida glabrata. Described as above. The note with it: C. glabrata. Here is the method: as §1, §2, §3
Series [6] deals with MES-SA/Dx5 (Taxol Resistant) human uterine sarcoma. Nature of the series: Drug resistant cell line pair, cytotoxicity (Example 10B). The note with it: vs MES-SA. An excerpt:
1) Human Uterine Sarcoma Tumor Cell Line Pair: MES-SA (Taxol Sensitive) and MES-SA/Dx5 (Taxol Resistant).

Series [7] relates to Aspergillus fumigatus. Nature of the series: Antifungal susceptibility testing, broth dilution (MIC/MFC). The note with it: Aspergillus fumigatus, A. fumigatus isolate #1; read-out: MIC. Here is the method: as §1, §2, §3
Where [8] appears, read: HT-29 cells, read-out: EC50 (M) Mean.

In the case of `CC(C)(C)c1[nH]cnc1/C=c1\[nH]c(=O)/c(=C/c2cccc(OP(=O)(O)O)c2)[nH]c1=O` [Compound 2521], the concentration giving a half-maximal response (EC50) (usually the midpoint of the concentration-response curve) in series [1] (HT-29, read-out: EC50 (M) Mean) stood at 2.8e-07 M. Turning to `COC(=O)c1cccc(/C=c2\[nH]c(=O)/c(=C/c3nc[nH]c3C(C)(C)C)[nH]c2=O)c1` [Compound 2527], the 50% effective concentration (EC50) in series [1] (HT-29, read-out: EC50 (M) Mean) worked out at 1.9e-07 M. Consider `CC(C)(C)c1[nH]cnc1/C=c1\[nH]c(=O)/c(=C/c2cccc(C(=O)O)c2)[nH]c1=O` [Compound 2528], for which the EC50 in series [1] (setting [8]) is above 2e-05 M. In the case of `CC(C)(C)c1[nH]cnc1/C=c1\[nH]c(=O)/c(=C/c2cccc(C(N)=O)c2)[nH]c1=O` [Compound 2529], in series [1] (HT-29, read-out: EC50 (M) Mean), the EC50 turned out to be 5e-06 M.

Turning to `CC(C)(C)c1ocnc1/C=c1\[nH]c(=O)/c(=C/c2cccc(C(N)=O)c2)[nH]c1=O` [Compound 2533], the EC50 in series [1] (setting [8]) worked out at 1.8e-06 M. In the case of `CC(C)(C)c1ocnc1/C=c1\[nH]c(=O)/c(=C/c2cccc(C(=O)c3ccc(CN)cc3)c2)[nH]c1=O` [Compound 2534], in series [1] (HT-29, read-out: EC50 (M) Mean), the EC50 amounted to 5.3e-07 M. As for `CC(C)(C)c1ocnc1/C=c1\[nH]c(=O)/c(=C/c2cccc(C(=O)c3ccc(CNC(=O)CCCCCNC(=O)CCCCCNC(=O)CCCC[C@@H]4SC[C@H]5NC(=O)N[C@@H]45)cc3)c2)[nH]c1=O` [Compound 2545], in series [1] (setting [8]), the EC50 came out at 1.1e-06 M. Turning to `COc1cc(/C=c2\[nH]c(=O)/c(=C/c3nc[nH]c3C(C)(C)C)[nH]c2=O)cc(OC)c1OC` [KPU-11, tBu-ΔPLH-3,4,5-triOMe], the EC50 in series [2] (HT-29, read-out: EC50 HT-29, Table 3, cells printed in μM) was above 20 µM. Also, the “cytotoxic activity against HT-29 cells” value in series [2] is “also showed activity”. In series [3], the “antifungal potency compared with griseofulvin” value is reported as “equivalent in potency or in some cases more potent than griseofulvin”. In the case of `COc1ccc(/C=c2\[nH]c(=O)/c(=C/c3nc[nH]c3C(C)(C)C)[nH]c2=O)c(OC)c1OC` [KPU-17, tBu-ΔPLH-2,3,4-triOMe], in series [2] (HT-29, Table 3, read-out: EC50 (nM) HT-29), the 50% effective concentration (EC50) turned out to be 4.06 µM. In series [2], the “cytotoxic activity against HT-29 cells” value is “also showed activity”. In addition, the “antifungal potency compared with griseofulvin” value in series [3] is on record as “equivalent in potency or in some cases more potent than griseofulvin”. Consider `C[C@@H]1[C@H](O)[C@@H](C)/C=C/C=C/C=C/C=C/C=C/C=C/C=C/[C@H](O[C@@H]2O[C@H](C)[C@@H](O)[C@H](N)[C@@H]2O)C[C@@H]2O[C@](O)(C[C@@H](O)C[C@@H](O)[C@H](O)CC[C@@H](O)C[C@@H](O)CC(=O)O[C@H]1C)C[C@H](O)[C@H]2C(=O)O` [amphotericin B, Amphotericin B], for which the results for the MFC in series [4] (C. albicans 10231), in series [4] (C. albicans 90028) and in series [5] were 0.5 µg/mL (≈ 0.541 µM), 0.5 µg/mL (≈ 0.541 µM) and 1 µg/mL (≈ 1.08 µM), respectively. Moreover, the results for the MIC in series [4] (C. albicans 10231), in series [4] (C. albicans 90028) and in series [5] were 0.5 µg/mL (≈ 0.541 µM), 0.5 µg/mL (≈ 0.541 µM) and 1 µg/mL (≈ 1.08 µM), respectively.

Take `CCCCNC(=O)n1c(NC(=O)OC)nc2ccccc21` [benomyl, Benomyl]: the MFC (usually the lowest tested concentration that kills the fungus rather than only halting it) in series [4] (Candida albicans, C. albicans 90028, read-out: MFC) is above 512 µg/mL; in series [5] (Nakaseomyces glabratus, read-out: MFC) it was above 512 µg/mL. The minimum inhibitory concentration (MIC) (usually the least concentration at which growth counts as inhibited) in series [4] (Candida albicans, C. albicans 90028, read-out: MIC) was determined as 64 µg/mL (≈ 220 µM); in series [5] (Nakaseomyces glabratus, read-out: MIC), 64 µg/mL (≈ 220 µM). Turning to `COc1cccc2c1C(=O)c1c(O)c3c(c(O)c1C2=O)C[C@@](O)(C(=O)CO)C[C@@H]3O[C@H]1C[C@H](N)[C@H](O)[C@H](C)O1` [doxorubicin, Doxorubicin, reference compound], the “reduced susceptibility of the MES-SA/DX5 cell line” value in series [6] is listed as 34 fold.

For `COc1cc([C@@H]2c3cc4c(cc3[C@@H](O[C@@H]3O[C@@H]5CO[C@@H](C)O[C@H]5[C@H](O)[C@H]3O)[C@H]3COC(=O)[C@H]23)OCO4)cc(OC)c1O` [etoposide, Etoposide, reference compound], the “reduced susceptibility of the MES-SA/DX5 cell line” value in series [6] turned out to be 60 fold. Turning to `CCC(C)n1ncn(-c2ccc(N3CCN(c4ccc(OCC5COC(Cn6cncn6)(c6ccc(Cl)cc6Cl)O5)cc4)CC3)cc2)c1=O` (centres unmarked) [itraconazole, Itraconazole, reference compound], the MIC in series [7] was 1 µg/mL (≈ 1.42 µM).

Values taken from patent publication US8129527B2, “Analogs of dehydrophenylahistins and their therapeutic use” (Nereus Pharmacuticals, Inc., priority 2006, dated 2012).
